How the values were obtained:
CYP1A1 = experiment: Induction of expression of the CYP1A1 gene in OUMS-29 cells (RT-PCR); conditions: 1 day after addition, 3-MC 0 to 10000 nM, BP 0 to 50000 nM, PB 0 to 25 mM, corrected to beta-actin mRNA
From the text: (§1) The expression of cytochrome P450 in the OUMS-29 culture can be analyzed by assessing the level of mRNA content by the commonly known RT-PCR method using DNA primers specific to different types of cytochrome P450. These primers can be prepared from the sequences of the respective types of cytochrome P450 available from the Gene Bank database. The accession numbers at the Gene Bank are K03191 for CYP1A1, M55053 for CYP1A2, J02625 for CYP2E1, J04449 for CYP3A4, J04813 for CYP3A5, and D00408 for CYP3A7. The individual primers used were
(§2) The OUMS-29 culture was cultured for 5 to 7 days; the cells becoming confluent were harvested, from which RNA was extracted using the RNAeasy kit (Quiagen). This RNA, along with the previously determined primers specific to the respective types of cytochrome P450, was subjected to reverse transcription from mRNA and PCR using an one-step PCR kit (Takara Shuzo), after which it was separated using agarose gel and visualized with ultraviolet rays in the presence of ethidium bromide.
(§3) The cultured cells were separated, from which RNA was extracted using the method described above and subjected to RT-PCR.
(§4) Regarding annealing conditions for the RT-PCR method, the annealing temperatures were 55° C. for CYP1A1, 65° C. for CYP1A2, and 55° C. for CYP3A, the cycle numbers being 28 to 36 cycles.
The cycle number for beta-actin, serving as a control, was 15 cycles.
In this operation, an actin competitive RT-PCR kit (Takara Shuzo) was used to correct the total mRNA content in each sample with reference to the mRNA content of beta-actin, which is expressed to the same extent in all tissues.

CYP1A2 = experiment: Induction of expression of the CYP1A2 gene in OUMS-29 cells (RT-PCR); conditions: 1 day after addition, 3-MC 0 to 10000 nM, BP 0 to 50000 nM, corrected to beta-actin mRNA
From the text: as §1, §2, §3, §4
The cycle number for beta-actin, serving as a control, was 15 cycles. […]

[1] = target: T1, NADPH cytochrome P450 reductase (Homo sapiens, UniProt P16435); experiment: Cytochrome P450 reductase activity of enzyme source of OUMS-29 origin (cytochrome C reduction); format: in vitro ADME; conditions: disrupted OUMS-29 cells, with NADPH; 1 unit = reducing 1 nanomol of cytochrome C per milligram of protein per minute
T1 construct: disrupted using an ultrasound generator; this suspension was used as the enzyme source; endogenous in cells; host or cells: OUMS-29 (SV40 T antigen-immortalized human fetal hepatocytes), sonicated cell suspension
T1 sequence (P16435 1-677): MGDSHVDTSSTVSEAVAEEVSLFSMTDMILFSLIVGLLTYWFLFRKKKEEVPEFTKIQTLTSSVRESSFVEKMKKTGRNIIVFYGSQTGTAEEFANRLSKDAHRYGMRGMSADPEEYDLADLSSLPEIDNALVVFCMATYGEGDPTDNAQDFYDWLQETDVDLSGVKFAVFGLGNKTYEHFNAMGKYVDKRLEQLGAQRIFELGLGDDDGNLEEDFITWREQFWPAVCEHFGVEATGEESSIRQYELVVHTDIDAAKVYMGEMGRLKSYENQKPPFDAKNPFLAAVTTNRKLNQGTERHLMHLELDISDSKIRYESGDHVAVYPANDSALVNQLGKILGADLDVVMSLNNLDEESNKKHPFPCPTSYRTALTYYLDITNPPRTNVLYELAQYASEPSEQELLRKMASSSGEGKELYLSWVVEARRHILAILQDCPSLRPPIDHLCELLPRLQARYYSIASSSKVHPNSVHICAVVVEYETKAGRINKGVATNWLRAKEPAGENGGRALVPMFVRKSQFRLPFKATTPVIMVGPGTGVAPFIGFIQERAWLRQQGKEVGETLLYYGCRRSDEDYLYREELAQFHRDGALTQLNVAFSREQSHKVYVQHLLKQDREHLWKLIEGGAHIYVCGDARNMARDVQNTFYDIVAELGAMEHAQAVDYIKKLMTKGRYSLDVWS
Experimental: Specifically, cytochrome P450 reductase activity was determined on the basis of cytochrome C reduction in the presence of NADPH (reduced nicotinamide adenine dinucleotide phosphate) and an enzyme source of OUMS-29 origin with cytochrome C as the substrate.

c1ccc2c(c1)c1cccc3ccc4cccc2c4c31 [benzpyrene]
expression of CYP1A1 (mRNA, RT-PCR) (CYP1A1): enhanced
expression of CYP1A2 (mRNA, RT-PCR) (CYP1A2): enhanced

cytochrome C
cytochrome C reduction (cytochrome P450 reductase activity) [1]: 8 units

Cc1ccc2cc3c(ccc4ccccc43)c3c2c1CC3 [3-methylcholanthrene]
expression of CYP1A1 (mRNA, RT-PCR) (CYP1A1): enhanced
expression of CYP1A2 (mRNA, RT-PCR) (CYP1A2): enhanced

CCC1(c2ccccc2)C(=O)NC(=O)NC1=O [phenobarbitone]
expression of CYP1A1 (mRNA, RT-PCR) (CYP1A1): enhanced
